How the values were obtained:
[1] = Case report: sexual cravings and hypersexual behaviors; assay type: in vivo, human; settings: for hypersexual symptoms: naltrexone and topiramate before N-acetylcysteine
From the text: They had sexual arousal even at age five to six years old. They started to masturbate several years later. Pretty soon masturbation became compulsive daily and multiple times a day. By then they had more access to pornography and internet. They would spend hours and hours on it. Their personal life was devastated. They had been in 12 step program called “Sex Addicts Anonymous” for the past 10 years in one of the largest cities in the US. Problem would repeatedly haunt them. Although they were given various antidepressants by doctors their condition had never stopped. They were treated with naltrexone and topiramate. […] Their hypersexual cravings and symptoms were gone. Currently, they are happily married and doing well at work. They are no longer taking naltrexone or topiramate. They are taking N-acetylcysteine only on an as needed basis. We have found same principles in voyeurism, exhibitionism and other sexual deviations. These patients often end up in jail yet they can't help themselves because of uncontrollable cravings.

[2] = test system: alcohol-dependent individuals; assay: Randomized, double-blind, placebo-controlled trial for treating alcohol dependence: safety; assay type: in vivo, human; settings: N-acetylcysteine up to 3600 mg/day, 8-week treatment
Protocol: (§1) Alcohol-dependent individuals were recruited for participation in a randomized, double-blind, placebo-controlled trial for treating alcohol dependence. To evaluate the safety and efficacy of N-acetylcysteine, 2 groups (N-acetylcysteine 3600 mg/day and placebo) were compared. The total study duration was 9 weeks which included a 1-week screening period and an 8-week randomized study drug treatment period. Subjects were randomized to one of two groups (Table 1) and were evaluated weekly.
(§2) Of 46 subjects, 44 subjects who took at least one study medication were included in analysis. Data analyses were conducted on an intention-to-treat sample using the linear mixed effects model introduced by Laird and Ware (Laird, N. M. & J. H. Ware. 1982. “Random-Effects Models for Longitudinal Data.” Biometrics 38:963-974). Outcome variables were measured over nine consecutive weeks. The covariates were Alcoholics Anonymous attendance and baseline alcohol craving. All the P-values reported are 2-tailed. Significance level was set at p<0.05.

[3] = test system: alcohol-dependent individuals; assay: Quality of Life Enjoyment and Satisfaction Questionnaire (Q-LES-Q) during the trial; assay type: in vivo, human; parameters: key to Q-LES-Q: 16-item Q-LES-Q, 5-point scale; higher = better health status
Protocol: as §1, §2
The effect of N-acetylcysteine on quality of life was measured weekly during the trial described in Example 1. The quality of life was measured by the Quality of Life Enjoyment and Satisfaction Questionnaire (Q-LES-Q).
The short form of the Q-LES-Q is a 16-item self-rated scale designed to assess quality of life, differences in the degree of enjoyment and satisfaction among groups of subjects, as well as changes over time in a single subject (Endicott J., et al., Quality of Life Enjoyment and Satisfaction Questionnaire: a new measure, Psychopharmacol. Bull., 1993, 29(2), 321-326). It is a 5-point scale, with higher scores indicating better health status. The Q-LES-Q SF has been used extensively in drug treatment trials in psychiatry and addictions and has shown good reliability and validity (Endicott J., et al., Pediatric Quality of Life Enjoyment and Satisfaction Questionnaire (PQ-LES-Q): reliability and validity. J. Am. Acad. Child Adolesc. Psychiatry, 2006, 45(4), 401-7). It assesses the following areas: physical health, mood, work, household activities, social relationships, family relationships, leisure time activities, ability to function in daily life, sexual drive, interest and/or performance, economic status, living/housing situation, ability to get around physically, ability to do work or hobbies, and overall sense of well being.

[4] = test system: alcohol-dependent individuals; assay: Alcohol craving by Penn Alcohol Craving Scale (PACS) during the trial; assay type: in vivo, human
Protocol: as §1, §2
During the trial described in Example 1, alcohol craving was measured weekly by the Penn Alcohol Craving Scale (PACS)(Flannery B. A., et al., Psychometric properties of the Penn Alcohol Craving Scale. Alcohol, Clin. Exp. Res. 1999, 23(8), 1289-95). The PACS is a 5-item self-rated scale designed to assess alcohol craving severity (frequency, intensity, duration, resistance, and overall craving) during the preceding 1 week. Each item has a score range of 0-6 (maximum total craving score=30).

[5] = test system: alcohol-dependent individuals; assay: Alcohol craving by Obsessive Compulsive Drinking Scale (OCDS) during the trial; assay type: in vivo, human; parameters: key to OCDS: OCDS total score, 14 items scored 0-4, max 56
Protocol: as §1, §2
Alcohol craving was also measured weekly by the Obsessive Compulsive Drinking Scale (OCDS) (Anton R. F., et al., The obsessive compulsive drinking scale: A new method of assessing outcome in alcoholism treatment studies. Arch. Gen. Psychiatry. 1996, 53(3), 225-231; Anton R. F., et al., The Obsessive Compulsive Drinking Scale: a self-rated instrument for the quantification of thoughts about alcohol and drinking behavior, Alcohol Clin. Exp. Res., 1995, 19(1), 92-99). The OCDS is a 14-item self-rated reliable scale designed to assess obsessive and compulsive aspects of alcoholism. Each item has a score range of 0-4 (maximum total score=56). Studies of factor analysis have reported that the OCDS loads to three or four factors (OCDS: P<0.05) (Roberts. J. S., et al., Factor structure and predictive validity of the Obsessive Compulsive Drinking Scale, Alcohol Clin. Exp. Res., 1999, 23(9), 1484-1491; Bohn, M. J., et al., Psychometric properties and validity of the obsessive-compulsive drinking scale, Alcohol Clin. Exp. Res., 1996, 20(5), 817-23; Kranzler, H. R., et al., Validity of the Obsessive Compulsive Drinking Scale (OCDS): does craving predict drinking behavior?, Alcohol Clin. Exp. Res. 1999, 23(1), 108-14).

[6] = Liver function tests (plasma AST, ALT, GGT) during the trial; assay type: in vivo, human; parameters: AST / ALT / GGT: unit not given here; settings: for ALT / AST / GGT: plasma
Protocol: as §1
The effect of N-acetylcysteine on liver functions was measured during the trial described in Example 1. Liver functions were assessed by measuring changes in plasma aspartate aminotransferase (AST), alanine aminotransferase (ALT) and γ-glutamyl transferase (GGT) levels three times during the study (week 0, week 5 and week 9).

[7] = test system: patients with alcohol dependence; assay: Case reports: alcohol consumption and alcohol-related symptoms; assay type: in vivo, human; parameters: AST / ALT: unit not given here
[8] = Case reports: food cravings and compulsive overeating; assay type: in vivo, human
[9] = Case report: shopping cravings and compulsive shopping; assay type: in vivo, human; settings: person, 2400-3600 mg/day, within two weeks
Protocol: They have had compulsive shopping behaviors for the past 20 years. They have been under severe financial stress because of their spending habits and unemployment. They had other addictive behaviors such as drinking, hoarding and overeating. Earlier, they were married, had stable job but lost everything. Various medicines such as antipsychotics and antidepressants were ineffective. On the third visit they were given N-acetylcysteine and was advised to take 2400-3600 mg/day.

[10] = test system: cysteine/glutamate exchange; settings: preclinical studies; cited from earlier work
[11] = in vivo; cited from earlier work
[12] = in vivo; cited from earlier work; remark: listed apart in the source
[13] = test system: cocaine-dependent patients; settings: cited from earlier work

## O=C1CC[C@@]2(O)[C@H]3Cc4ccc(O)c5c4[C@@]2(CCN3CC2CC2)[C@H]1O5 [naltrexone]
[1]; person
  hypersexual symptoms: only partially

## CC(=O)N[C@@H](CS)C(=O)O [N-acetylcysteine]
[2]
  serious adverse effects: no serious adverse effects
  tolerability: well tolerated
[3]; Week 1
  Q-LES-Q: 50.4000
[3]; Week 2
  Q-LES-Q: 51.6390
[3]; Week 3
  Q-LES-Q: 53.8772
[3]; Week 4
  Q-LES-Q: 54.1789
[3]; Week 5
  Q-LES-Q: 57.7852
[3]; Week 6
  Q-LES-Q: 57.5529
[3]; Week 7
  Q-LES-Q: 58.1422
[3]; Week 8
  Q-LES-Q: 57.8000
[3]; Week 9
  Q-LES-Q: 58.7244
[3]; during the trial, p=0.017
  quality of life by Q-LES-Q compared to placebo: improved the quality of life
[4]; Week 1
  PACS: 18.1429
[4]; Week 2
  PACS: 15.1500
[4]; Week 3
  PACS: 14.0000
[4]; Week 4
  PACS: 11.9474
[4]; Week 5
  PACS: 11.7778
[4]; Week 6
  PACS: 9.3529
[4]; Week 7
  PACS: 8.3333
[4]; Week 8
  PACS: 7.2667
[4]; Week 9
  PACS: 7.2000
[4]; during the trial, p=0.041
  alcohol craving by PACS compared to placebo: decreased alcohol craving
[5]; Week 1
  OCDS: 29.0000
[5]; Week 2
  OCDS: 24.9000
[5]; Week 3
  OCDS: 21.6316
[5]; Week 4
  OCDS: 20.3684
[5]; Week 5
  OCDS: 18.5556
[5]; Week 6
  OCDS: 16.0000
[5]; Week 7
  OCDS: 13.5333
[5]; Week 8
  OCDS: 13.4667
[5]; Week 9
  OCDS: 13.8000
[5]; during the trial, p=0.042
  alcohol craving by OCDS compared to placebo: decreased alcohol craving
[6]; 8-week trial
  liver functions (AST, ALT, GGT liver function tests): improved liver functions
[6]; Week 0
  ALT: 36.67
  AST: 40.89
  GGT: 193.00
[6]; Week 5
  ALT: 33.06
  AST: 30.28
  GGT: 139.06
[6]; Week 9
  ALT: 29.13
  AST: 26.13
  GGT: 92.93
[7]; Case 1, after taking 900 mg
  alcohol use: able to stop drinking alcohol
[7]; Case 1, on 3600 mg
  alcohol craving: substantial reduction in their craving
[7]; Case 2, from 41, in two months while taking N-acetylcysteine
  AST: 20
[7]; Case 2, from 51, in two months while taking N-acetylcysteine
  ALT: 18
[7]; Case 2, from 1420, in two months while taking N-acetylcysteine
  GGT: 327
[7]; Case 2, soon after start
  alcohol use: able to abstain from alcohol
[7]; Case 3, at 3600 mg/day
  alcohol use: able to stop drinking alcohol completely
[7]; Case 4, 900 mg, before 12-24 beers/day
  alcohol use: 6 drinks/day
[7]; Case 4, several weeks later, 2400-3600 mg
  alcohol use: able to abstain from alcohol
[7]; Case 5, 3600 mg, before 6-12 drinks of vodka per day
  drinking consumption: reduced their drinking significantly
[7]; Case 5, at 900-2700 mg/day
  drinking consumption: about the same
[7]; numerous test subjects
  alcohol consumption and other alcohol-related symptoms: reduced alcohol consumption and other alcohol-related symptoms
[8]; Case 1, from 239 lbs, in 5 weeks, 2700-3600 mg per day
  weight: 225 lbs
[8]; Case 1, two months later, 3600 mg
  weight: 224 lbs
[8]; Case 2, from 295 lbs, in one month
  weight: 286 lbs
[8]; Case 3, 1200 mg
  time for food craving to subside after taking: ≤ 15 min
[8]; Case 3, start 220 lbs, two weeks, 1200 mg three times a day
  weight lost: 6 lbs
[8]; numerous test subjects
  food cravings and compulsive overeating: reduced food cravings and compulsive overeating
[1]; patients with uncontrollable cravings
  effect in voyeurism, exhibitionism and other sexual deviations: works dramatically
[1]; person, 2400-3600 mg/day added to naltrexone and topiramate
  hypersexual cravings and symptoms: ameliorated dramatically
[9]
  shopping cravings and behaviors: stopped dramatically
[10]
  cocaine-primed reinstatement: inhibited
  heroin-induced reinstatement: inhibited
[11]
  treatment of pathological gambling: showed the efficacy
[12]
  half-life: short half-life
[13]; double-blind placebo-controlled crossover trial
  cocaine use and craving: reduced cocaine use and craving
[13]; human, in vivo
  safety and tolerability: safe and well tolerated
[13]; open-label clinical study of cocaine-dependent patients
  cocaine use: significantly reduced cocaine use

## CC1(C)O[C@@H]2[C@@H](CO[C@@]3(COS(N)(=O)=O)OC(C)(C)O[C@@H]23)O1 [topiramate]
[1]; person
  hypersexual symptoms: only partially

From patent US20120270860A1, “METHODS FOR TREATING OR PREVENTING ALCOHOL-RELATED DISORDERS OR CRAVING-RELATED DISORDERS” (priority 2011, published 2012)
